These results are taken from paper PMC7946228, “Discovery of novel candidates for anti-liposarcoma therapies by medium-scale high-throughput drug screening” (PLoS ONE, 2021).

Each structure is given as a SMILES string.

Assay [1] deals with cancer cells isolated from primary liposarcoma tumors. Description: Ex vivo cultures of patient-derived tumor cells, ATP viability 72h. The assay is classed as cell-based, human. The conditions noted are these: 1 nM to 10 μM, patients 1-3. As for the experimental part:
349 compounds from anti-cancer Selleck Chemical library were pre-aliquoted at five concentrations, increasing in 10-fold steps from 1 nM to 10 μM, in 384-well plates using an Echo Liquid Handler. Each plate also contained positive (benzethonium chloride, BzCl) and negative (DMSO only) controls. Additional drugs were added manually to the same plates at the same concentration range. Cells were seeded directly into the plates containing the drugs. After 72h viability was assessed through levels of ATP, with Cell Titer Glow assay (Promega, Wisconsin, United States) and luminescence quantified using a […]. Data from drug screens were analyzed with R version 3.4.0 (R_Core_Team, 2017) normalized to median positive (BzCl) and median negative (DMSO) controls using formula: (drug-BzCl)/(DMSO–BzCl), with total viability calculated as the area under the curve over all five drug concentrations, adjusted using qualitatively constrained quantile smoothing splines, R package ‘cobs’ version 1.3–3 [22]. The raw values of positive (BzCl) and median negative (DMSO) controls on each assay plate were aggregated and used to calculate z’-factors, as a measure of assay performance and data quality, with a z’-factor > 0.5 representing acceptable data. For two cases where the z’-factor was below 0.5, strictly standardized mean difference (SSMD) was additionally calculated, giving the population value (β) of SSMD -4 and -5, respectively, indicating good quality. Data visualization was done in R using ‘ComplexHeatmaps’ package version 1.20.0 [24]. The same assay was also used when assessing viability of non-tumor cells and tumor explants.
Explants of tumors from patients with liposarcoma were made using Tumor Dissociation Kit and gentleMACS Dissociator (both Miltenyi Biotec, Germany) according to the manufacturer’s instructions. […]
Next, we tested the selected candidate drugs on cancer cells isolated from primary liposarcoma tumors that were available during the study (Fig 5, bottom panel). […] Cell viability was assessed by measuring ATP after 72h. […]

Assay [2] concerns liposarcoma cell lines. Kind of assay: IncuCyte cell proliferation assay (growth reducing/arresting concentration). The assay is classed as cell-based, human. The settings on record: complete growth arrest between 96 and 120h. As for the experimental part:
The cellular proliferation rate was measured using the IncuCyte ZOOM live-cell imaging system (Essen Bioscience, Birmingham, UK) with the corresponding software application (version 2013BRev1). First the growth rate for each cell line was established to estimate the seeding numbers of cells corresponding to 15-30% of confluence at the start of the experiment and maximum 70% after 72h. The drug treatment was initiated approximately 18h after seeding. The proliferation rate was measured as cell confluence over time through the acquisition of photographs under phase contrast every third hour for the entire duration of the drug treatment. During the drug treatment, media were not changed, and cells were not split. The growth reducing drug concentration was defined as lowest drug concentration leading to significant decrease of cellular growth between 40 and 72h after start of treatment. To determine that concentration, plots were generated using IncuCyte software and differences in growth between 40 and 72h were calculated using least-square means with the '[…] package version 1.4.3 [25]. Growth arresting concentrations were defined as minimal drug concentration under which cell confluence between 96 and 120h increases by less than 3%. Though growth arrest occurred much earlier, these time points ensured that the growth arrest is a stable phenomenon. These growth arresting concentrations were used for drug withdrawal, apoptosis and cell cycle experiments. All the data were verified with the plots. The presented values correspond to median values from two ([…], all compounds) to five (all cell lines, triptolide) biological replicates.

Assay [3] deals with liposarcoma cell lines. Description: Drug withdrawal, reversibility of growth arrest. The class given is cell-based, human. The settings on record: for reversibility of growth inhibition after drug removal: 120h treatment at growth arresting concentration, then 72h without drug, except T778 with MLN9708. As for the experimental part:
The cellular proliferation rate was measured using the IncuCyte ZOOM live-cell imaging system (Essen Bioscience, Birmingham, UK) with the corresponding software application (version 2013BRev1). First the growth rate for each cell line was established to estimate the seeding numbers of cells corresponding to 15–30% of confluence at the start of the experiment and maximum 70% after 72h. The drug treatment was initiated approximately 18h after seeding. The proliferation rate was measured as cell confluence over time through the acquisition of photographs under phase contrast every third hour for the entire duration of the drug treatment. During the drug treatment, media were not changed, and cells were not split. The growth reducing drug concentration was defined as lowest drug concentration leading to significant decrease of cellular growth between 40 and 72h after start of treatment. To determine that concentration, plots were generated using IncuCyte software and differences in growth between 40 and 72h were calculated using least-square means with the ‘emmeans’ R package version 1.4.3 [25]. Growth arresting concentrations were defined as minimal drug concentration under which cell confluence between 96 and 120h increases by less than 3%. Though growth arrest occurred much earlier, these time points ensured that the growth arrest is a stable phenomenon. These growth arresting concentrations were used for drug withdrawal, apoptosis and cell cycle experiments. All the data were verified with the plots. The presented values correspond to median values from two (T449, all compounds) to five (all cell lines, triptolide) biological replicates.
An important prerequisite for clinical implementation of these compounds as treatment for liposarcoma is irreversibility of the induced growth inhibition. We thus assessed if the drugs were only transiently cytostatic, which is especially important in case of the compounds that seem to work mainly via cell cycle arrest (APO866, GSK2126458). Cells were treated with the compounds at growth arresting concentrations for 120h after which the compounds were removed and cell numbers were monitored for another 72h. […] To irreversibly arrest cell proliferation GSK2126458 had to be used at 10x higher concentrations (100x for GOT3) (S5 Fig). Those concentrations are above physiological ranges (see Table 2), and these effects should be accounted for assessing use of GSK2126458 in clinic.

The subject of assay [4] is advanced solid malignancies or lymphoma. The conditions noted are these: cited from earlier work.

With `O=C(/C=C/c1cccnc1)NCCCCC1CCN(C(=O)c2ccccc2)CC1` [APO866], the “efficacy against primary tumor cells from liposarcoma patients” value (from here on “efficacy against primary tumor cells”) in assay [1] is recorded as “most varied”. For the same compound, the “concentration arresting the majority of the cell lines” value in assay [2] is reported as 10 nM. Moreover, the “reversibility of growth inhibition after drug removal” value (“reversibility of growth inhibition” for short) in assay [3] was “irreversibly inhibited growth of all tested cell lines”.

With `Cn1cc(CNCC2CCN(c3ncc(C(=O)NO)cn3)CC2)c2ccccc21` [JNJ-26481585], in assay [4] (heavily pretreated patients with solid tumors), the “patients with partial response or stable disease” value is listed as 10%. Moreover, the “reversibility of growth inhibition” value in assay [3] is listed as “irreversibly inhibited growth of all tested cell lines”.

`CC(C)[C@]12O[C@H]1[C@@H]1O[C@]13[C@]1(O[C@H]1C[C@H]1C4=C(CC[C@@]13C)C(=O)OC4)[C@@H]2O` [Triptolide]: the “efficacy against primary tumor cells” value in assay [1] is on record as “most efficient for all the samples”. Also, in assay [2], the “concentration arresting the majority of the cell lines” value is reported as 10 nM. Also, the “reversibility of growth inhibition” value in assay [3] is on record as “irreversibly inhibited growth of all tested cell lines”.

On to `COCCn1c2c([n+](Cc3cnccn3)c1C)C(=O)c1ccccc1C2=O` [YM155], for which the “patients with complete or partial responses” value in assay [4] (phase I, advanced solid malignancies or lymphoma) is reported as 14%. Further, the “efficacy against primary tumor cells” value in assay [1] was “good response”. The “reversibility of growth inhibition” value in assay [3] was “Some cell lines such as LPS141, T778 and SA-4 resumed growth”. Also, the “concentration needed for irreversible growth arrest relative to growth arresting concentration” value in assay [3] (cell lines that resumed growth, 100x for GOT3 with GSK2126458) came to 10 x higher.
